The values that follow are results of earlier work, collected in article PMC5572761 (Journal of medicinal chemistry, 2017).

The series deals with α3β4 nAChR. The following applies: read-out: IC50 [nM] α3β4; cited from earlier work.

As for α-conotoxin AuIB [Peptide 17], the IC50 was 750 nM.
